Experimental data published in US20250051338A1, “TYK2 DEGRADERS AND USES THEREOF” (Kymera Therapeutics, Inc., priority 2021, published 2025).

What was measured:
Type in all cases: cell-based
TYK2 [1] = biological target: T1, TYK2 (Homo sapiens, UniProt P29597); assay: TYK2 degradation MSD assay in human PBMC cells; set-up: endogenous in cells; host or cells: human PBMC; conditions: 4 to 24 hours incubation, read-out: TYK2 MSD DC50 rating in human PBMC
Method in brief: (§1)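 TYK2 levels in lysed cells, detected via antibody capture and SULFO-TAG electrochemiluminescence, were compared across a nine-point threefold compound dilution (highest 1 to 10 μM) after 4–24 h culture at 37° C under 5% CO2. Four-parameter nonlinear regression of the dose response yielded DC50.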

TYK2 [2] = biological target: T1, TYK2; assay: TYK2 degradation MSD assay in EBV-B cells; set-up: endogenous in cells; host or cells: EBV-B cells; conditions: 4 to 24 hours incubation, read-out: TYK2 MSD DC50 rating in EBV-B
Method in brief: as §1

TYK2 [3] = biological target: T1, TYK2; assay: TYK2 degradation MSD assay in OCI-LY10 cells; set-up: endogenous in cells; host or cells: EBV-B cells; conditions: 4 to 24 hours incubation, read-out: TYK2 MSD DC50 rating in OCI-LY10
Method in brief: as §1

T1 sequence (P29597 whole entry): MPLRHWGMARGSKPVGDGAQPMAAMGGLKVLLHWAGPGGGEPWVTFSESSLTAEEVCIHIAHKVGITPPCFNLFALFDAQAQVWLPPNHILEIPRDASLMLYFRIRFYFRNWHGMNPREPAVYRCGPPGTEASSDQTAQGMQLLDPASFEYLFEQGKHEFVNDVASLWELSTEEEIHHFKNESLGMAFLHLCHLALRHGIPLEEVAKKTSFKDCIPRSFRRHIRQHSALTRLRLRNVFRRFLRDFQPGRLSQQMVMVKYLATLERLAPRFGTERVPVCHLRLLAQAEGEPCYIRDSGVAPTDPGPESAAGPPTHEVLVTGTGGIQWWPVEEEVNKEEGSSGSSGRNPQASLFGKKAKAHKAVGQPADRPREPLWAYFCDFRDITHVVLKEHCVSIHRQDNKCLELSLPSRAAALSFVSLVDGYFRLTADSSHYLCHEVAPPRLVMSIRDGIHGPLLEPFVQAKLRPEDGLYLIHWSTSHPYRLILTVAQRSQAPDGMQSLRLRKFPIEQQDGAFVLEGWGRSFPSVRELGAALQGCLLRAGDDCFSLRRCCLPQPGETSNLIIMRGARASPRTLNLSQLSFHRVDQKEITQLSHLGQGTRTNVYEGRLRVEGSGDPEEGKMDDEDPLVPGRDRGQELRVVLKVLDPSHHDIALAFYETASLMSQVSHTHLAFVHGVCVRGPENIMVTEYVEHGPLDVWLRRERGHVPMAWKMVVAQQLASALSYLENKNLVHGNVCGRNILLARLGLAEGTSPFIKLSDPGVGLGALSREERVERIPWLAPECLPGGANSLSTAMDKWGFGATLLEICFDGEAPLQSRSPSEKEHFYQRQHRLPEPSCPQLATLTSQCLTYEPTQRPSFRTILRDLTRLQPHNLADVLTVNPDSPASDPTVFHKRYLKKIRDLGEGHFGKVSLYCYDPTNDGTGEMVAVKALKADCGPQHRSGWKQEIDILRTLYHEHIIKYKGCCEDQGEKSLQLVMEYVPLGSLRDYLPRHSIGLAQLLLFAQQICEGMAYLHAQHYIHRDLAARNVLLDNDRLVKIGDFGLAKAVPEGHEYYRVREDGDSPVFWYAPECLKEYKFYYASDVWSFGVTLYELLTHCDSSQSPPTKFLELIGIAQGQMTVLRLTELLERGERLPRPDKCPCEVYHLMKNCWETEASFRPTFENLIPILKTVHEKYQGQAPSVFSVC

| DC50 (TYK2 [1]) | DC50 (TYK2 [2]) | DC50 (TYK2 [3]) | SMILES |
| --- | --- | --- | --- |
| > 100 nM | > 100 nM | > 100 nM | COc1c(Nc2cc(C(F)F)c3ncc(C(=O)N[C@@H]4C[C@@H]4F)n3n2)cccc1-c1ccc(CN2CCN(c3ccc(-c4ccc5c(c4)n(C)c(=O)n5C4CCC(=O)NC4=O)cc3)CC2)cn1 (mixture of isomers) [Example K539] |
| > 100 nM | > 100 nM | > 100 nM | CNc1cc(Nc2cccn(-c3cccc(C(=O)NCCCCCCc4ccc5c(c4)n(C)c(=O)n5C4CCC(=O)NC4=O)c3)c2=O)nn2c(C(=O)N[C@@H]3C[C@@H]3F)cnc12 (stereo partly drawn) [Example K221] |
| 1 to 10 nM | > 100 nM | > 100 nM | CNc1cc(Nc2cccn(C3CCN(C(=O)NCCCCc4cccc5c4n(C)c(=O)n5C4CCC(=O)NC4=O)CC3)c2=O)nn2c(C(=O)N[C@@H]3C[C@@H]3F)cnc12 (stereo partly drawn) [Example K278] |
| > 100 nM | > 100 nM | < 1 nM | CNc1cc(Nc2cccc(CN3CCC([C@@H]4CCN(c5ccc6c(c5)n(C)c(=O)n6C5CCC(=O)NC5=O)C4)CC3)c2)nn2c(C(=O)NC3CC3)ncc12 (stereo partly drawn) [Example K581] |
| > 100 nM | > 100 nM | > 100 nM | CNc1cc(-c2cnn(C3CN(C(=O)NCCCCCCCCc4ccc5c(c4)n(C)c(=O)n5C4CCC(=O)NC4=O)C3)c2)nn2c(C(=O)NC3C[C@@H]3F)cnc12 (stereo partly drawn) [Example K318] |
| > 100 nM | < 1 nM | > 100 nM | CNc1cc(Nc2cccn(C3CCN(C(=O)N(C)CC4CCN(c5ccc6c(c5)n(C)c(=O)n6C5CCC(=O)NC5=O)CC4)CC3)c2=O)nn2c(C(=O)N[C@@H]3C[C@@H]3F)cnc12 (stereo partly drawn) [Example K398] |
| > 100 nM | > 100 nM | 1 to 10 nM | CNc1cc(N2CCc3c(N4CCC(CN5CC6(C5)CN(c5ccc(-c7ccc8c(c7)n(C)c(=O)n8C7CCC(=O)NC7=O)cc5)C6)CC4)cccc32)nn2c(C(=O)N[C@@H]3C[C@@H]3F)cnc12 (stereo partly drawn) [Example K573] |
| 1 to 10 nM | > 100 nM | > 100 nM | CNc1cc(Nc2cccn(-c3cc(C(=O)NCCCCCCc4cccc5c4n(C)c(=O)n5C4CCC(=O)NC4=O)ccn3)c2=O)nn2c(C(=O)N[C@@H]3C[C@@H]3F)cnc12 (stereo partly drawn) [Example K230] |
| > 100 nM | > 100 nM | > 100 nM | CNC(=O)c1cnc(NC(=O)NCCCCc2cccc3c2n(C)c(=O)n3C2CCC(=O)NC2=O)cc1Nc1cccc(-c2ncc(F)cn2)c1OC (stereo not drawn) [Example K105] |
| > 100 nM | > 100 nM | > 100 nM | O=C1CCN(c2cc(C(=O)N3CCC4(CC3)CN(Cc3ccc(-c5cccc6c5CCN6c5ccc6ncc(C(=O)NC7CC7)n6n5)nc3)C4)ccc2Cl)C(=O)N1 [Example K554] |
| > 100 nM | > 100 nM | < 1 nM | CNc1cc(Nc2cccc(-c3ccc(CN4CCN(c5ccc(-c6ccc7c(c6)n(C)c(=O)n7C6CCC(=O)NC6=O)cc5)CC4)cn3)c2Cl)nn2c(C(=O)N[C@@H]3C[C@@H]3F)cnc12 (mixture of isomers) [Example K541] |
| > 100 nM | > 100 nM | > 100 nM | CNc1cc(-c2cccc(C(=O)NCCCCCCCCc3cccc4c3n(C)c(=O)n4C3CCC(=O)NC3=O)c2)nn2c(C(=O)N[C@@H]3C[C@@H]3F)cnc12 (stereo partly drawn) [Example K310] |
| 1 to 10 nM | > 100 nM | > 100 nM | CNc1cc(Nc2cccn(-c3ccc(C(=O)NCCOCCOCCc4cccc5c4n(C)c(=O)n5C4CCC(=O)NC4=O)cn3)c2=O)nn2c(C(=O)N[C@@H]3C[C@@H]3F)cnc12 (stereo partly drawn) [Example K216] |
| < 1 nM | > 100 nM | > 100 nM | CNc1cc(Nc2cccc(C(=O)NCCCCCCCCc3ccc4c(c3)n(C)c(=O)n4C3CCC(=O)NC3=O)c2)nn2c(C(=O)N[C@@H]3C[C@@H]3F)cnc12 (stereo partly drawn) [Example K251] |
| > 100 nM | > 100 nM | > 100 nM | CNc1cc(-c2cnn(C3CN(C(=O)NCCCCCCc4cccc5c4n(C)c(=O)n5C4CCC(=O)NC4=O)C3)c2)nn2c(C(=O)N[C@@H]3C[C@@H]3F)cnc12 (stereo partly drawn) [Example K317] |
| > 100 nM | > 100 nM | < 1 nM | CNc1cc(Nc2cccn(-c3ccc(CN4CCN(CC5CCN(c6ccc(-c7ccc8c(c7)n(C)c(=O)n8C7CCC(=O)NC7=O)cc6)CC5)CC4)cn3)c2=O)nn2c(C(=O)N[C@@H]3C[C@@H]3F)cnc12 (stereo partly drawn) [Example K514] |
| > 100 nM | > 100 nM | > 100 nM | CNc1cc(Nc2cccc(CN3CCC4(CC3)CC(Cc3ccc5c(c3)n(C)c(=O)n5C3CCC(=O)NC3=O)C4)c2)nn2c(C(=O)NC3CC3)cnc12 (stereo not drawn) [Example K584] |
| > 100 nM | > 100 nM | > 100 nM | CNc1cc(-c2cnn(C3CN(C(=O)NCCCCc4cccc5c4n(C)c(=O)n5C4CCC(=O)NC4=O)C3)c2)nn2c(C(=O)N[C@@H]3C[C@@H]3F)cnc12 (stereo partly drawn) [Example K316] |
| < 1 nM | < 1 nM | > 100 nM | CNC(=O)c1cnc(Nc2ccc(CN3CCN(c4ccc5c(c4)n(C)c(=O)n5C4CCC(=O)NC4=O)CC3)cn2)cc1Nc1cccc(-c2ncc(F)cn2)c1OC (stereo not drawn) [Example K177] |
| > 100 nM | > 100 nM | > 100 nM | CNc1cc(Nc2cccc(C3CCN(CCc4cccc5c4n(C)c(=O)n5C4CCC(=O)NC4=O)CC3)c2)nn2c(C(=O)N[C@@H]3C[C@@H]3F)cnc12 (stereo partly drawn) [Example K641] |
| > 100 nM | > 100 nM | > 100 nM | CNc1cc(Nc2cccc(CN3CC4(CCN(c5ccc6c(c5)n(C)c(=O)n6C5CCC(=O)NC5=O)CC4)C3)c2)nn2c(C(=O)NC3CC3)cnc12 (stereo not drawn) [Example K614] |
| > 100 nM | > 100 nM | > 100 nM | CNc1cc(Nc2ccccc2C(=O)NCCCCc2cccc3c2n(C)c(=O)n3C2CCC(=O)NC2=O)nn2c(C(=O)N[C@@H]3C[C@@H]3F)cnc12 (stereo partly drawn) [Example K253] |
| > 100 nM | 1 to 10 nM | < 1 nM | CNc1cc(Nc2cccn(-c3ccc(C(=O)N[C@H]4CC[C@H](CN5CCC6(CC5)CN(Cc5cccc7c5n(C)c(=O)n7C5CCC(=O)NC5=O)C6)CC4)cn3)c2=O)nn2c(C(=O)N[C@@H]3C[C@@H]3F)cnc12 (stereo partly drawn) [Example K430] |
| > 100 nM | > 100 nM | > 100 nM | Cn1c(=O)n(C2CCC(=O)NC2=O)c2cccc(CCCCNc3cc(Nc4cccn(-c5ccccn5)c4=O)nn4c(C(=O)N[C@@H]5C[C@@H]5F)cnc34)c21 (stereo partly drawn) [Example K205] |
| > 100 nM | 1 to 10 nM | > 100 nM | CNc1cc(Nc2cccn(-c3ccc(C(=O)N4CCCC5(C4)CN(c4ncc(C#Cc6ccc7c(c6)n(C)c(=O)n7C6CCC(=N)NC6=O)cn4)C5)cn3)c2=O)nn2c(C(=O)N[C@@H]3C[C@@H]3F)cnc12 (stereo partly drawn) [Example K371] |
| 1 to 10 nM | > 100 nM | > 100 nM | CNc1cc(Nc2cccn(-c3cccc(C(=O)NCCOCCOCCc4ccc5c(c4)n(C)c(=O)n5C4CCC(=O)NC4=O)c3)c2=O)nn2c(C(=O)N[C@@H]3C[C@@H]3F)cnc12 (stereo partly drawn) [Example K235] |
| > 100 nM | > 100 nM | 1 to 10 nM | CNc1cc(N2CCc3c(-c4cc(N5CCN(CC6CCN(c7cccc8c7n(C)c(=O)n8C7CCC(=O)NC7=O)CC6)CC5)ccn4)cccc32)nn2c(C(=O)NC3CC3F)cnc12 (stereo not drawn) [Example K656] |
| < 1 nM | > 100 nM | > 100 nM | CNC(=O)c1cnc(NC(=O)NCCCCCCCc2ccc3c(c2)n(C)c(=O)n3C2CCC(=O)NC2=O)cc1Nc1cccc(-c2ncc(F)cn2)c1OC (stereo not drawn) [Example K188] |
